Results reported in patent US20130236619A1, “ANTI-MICROBIAL FOOD PROCESSING COMPOSITIONS INCLUDING CERAGENIN COMPOUNDS AND METHODS OF USE” (Brigham Young University, priority 2012, published 2013).

Key:
spoilage microorganisms = test: Example 1: shelf-life of poultry carcasses dipped in wash composition; conditions: wash composition including 100 ppm peracetic acid
Procedure: A study was performed to determine the effectiveness of an anti-microbial rinse composition including relatively low concentrations of a ceragenin compound in controlling growth of bacteria and extending shelf-life of a poultry food product. Three different wash compositions were prepared. Aqueous wash composition 1 (the control) included no ceragenin compound or other anti-microbial agent. Aqueous wash composition 1 was simply tap water. […] The ceragenin compound employed was CSA-44. Poultry carcasses (chicken carcasses) were dipped (e.g., immersed) for 30 seconds into the given wash composition and mechanically agitated to mimic the action of a finishing chiller used in commercial processing. After the 30 second application time, the carcasses were immediately vacuum packaged and stored in a refrigerator at 4° C. Three carcasses from each treatment were tested every third day beginning at day 0 and ending at day 21 to monitor their associated levels of microorganisms.
Poultry is considered to be spoiled when it reaches a level of 10^6 Colony Forming Units (“CFUs”)/ml of spoilage microorganisms in the rinsate. The control, i.e., poultry carcasses treated with wash composition 1, reached this limit on day 12. […] By day 18, the poultry carcasses treated with wash composition 2 had exceeded this limit with a value of about 10^6.5 CFUs/ml. […]

Salmonella bacteria = test: Example 2: Salmonella inoculated poultry carcasses dipped in wash composition; conditions: peracetic acid wash composition
Procedure: (§1) Example 2 was performed to determine the effectiveness of an anti-microbial wash composition including a ceragenin compound in controlling growth of Salmonella bacteria by fighting off a Salmonella inoculation. Example 3 was similarly performed to determine the effectiveness of the wash composition in controlling growth of Campylobacter bacteria by fighting off a Campylobacter inoculation. Examples 2 and 3 simulate the effectiveness of the present anti-microbial wash compositions to kill Salmonella and Campylobacter on a poultry carcass where the poultry carcass has become contaminated with Salmonella bacteria or Campylobacter bacteria.
(§2) A total of 15 poultry carcasses (chicken carcasses) were sampled for these tests. The 15 poultry carcasses were divided into five groups of three each. Three carcasses were left untreated to serve as a negative control in order to observe natural levels of bacteria present on the carcass. The remaining 12 carcasses were then inoculated with 1 mL of Salmonella and 1 mL of Campylobacter. The carcasses were allowed to dry for 20 minutes in order for the bacteria to adhere to the surface of the poultry carcasses. One group of three of the inoculated poultry carcasses, designated the positive control, were then rinsed with a wash composition including no anti-microbial agent to determine the level of bacteria after inoculation. […]

Campylobacter bacteria = test: Example 3: Campylobacter inoculated poultry carcasses dipped in wash composition; conditions: peracetic acid wash composition
Procedure: as §1, §2

CC(=O)OO [peracetic acid]
extension of shelf-life relative to a control wash composition (spoilage microorganisms): no extension of shelf-life | reduction of the presence of Salmonella bacteria (Salmonella bacteria): effective in reducing | reduction of the presence of Campylobacter bacteria (Campylobacter bacteria): effective in reducing
